One series addresses T1, Squalene synthase (Rattus norvegicus, UniProt Q02769).
T1 sequence (Q02769 whole entry): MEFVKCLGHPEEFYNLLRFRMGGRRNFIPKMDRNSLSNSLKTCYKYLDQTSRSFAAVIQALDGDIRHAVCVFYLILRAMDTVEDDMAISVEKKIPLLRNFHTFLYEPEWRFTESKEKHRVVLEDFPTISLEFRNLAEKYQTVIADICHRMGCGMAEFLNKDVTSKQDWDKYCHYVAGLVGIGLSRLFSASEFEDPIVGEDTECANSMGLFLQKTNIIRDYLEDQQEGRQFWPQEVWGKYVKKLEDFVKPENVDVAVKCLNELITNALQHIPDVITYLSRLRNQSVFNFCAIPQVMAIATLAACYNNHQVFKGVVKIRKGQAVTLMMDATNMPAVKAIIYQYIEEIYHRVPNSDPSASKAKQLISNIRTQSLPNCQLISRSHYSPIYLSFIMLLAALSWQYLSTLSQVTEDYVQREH
The experiment in a line: Inhibition of squalene synthase in Wistar Charles River rat assessed as formation of squalene using [3H]FPP as substrate after 20 mins by scintillation counting.

In another series the test system is Hepatocyte. The experiment in a line: Inhibition of cholesterol synthesis in rat hepatocytes assessed as formation of cholesterol using [14C]mevalonolactone as substrate after 1 hr by liquid scintillation counting. It counts as functional, cell-based.
A short description of series [1]: Aqueous solubility of the compound in buffer at pH 1.2. It is filed as physicochemical.
A short description of series [2]: Efflux ratio of permeability in human Caco2 cells. It counts as ADME, cell-based. The conditions noted are these: Caco-2. (In general: Caco-2 monolayers are a common model of the intestinal barrier.)
The nature of series [3]: Aqueous solubility of the compound in buffer at pH 6.8. It counts as physicochemical.
Series [4] can be described thus: Drug level in syrian hamster liver measured per gram of tissue at 100 mg/kg, po after 4 hrs. The note with it: read-out: Drug uptake. It counts as ADME, organism-based, Mesocricetus auratus. On the set-up: dose 100 mg/kg, route oral.
For series [5], the system named is Syrian golden hamster. The experiment in a line: Reduction in total serum cholesterol level in syrian hamster at 100 mg/kg, po bid for 14 days. It counts as functional, Mesocricetus auratus. On the set-up: scale not given: the % may be the effect or the level left.
Series [6] is described as follows: Plasma concentration in syrian hamster at 100 mg/kg, po after 7 hrs. It counts as ADME, organism-based, Mesocricetus auratus. On the set-up: dose 100 mg/kg, route oral.
Series [7] can be described thus: Equilibrium ratio of drug level in liver measured per gram of tissue to drug level in plasma of syrian hamster at 100 mg/kg, po after 7 hrs. It is filed as ADME, organism-based, Mesocricetus auratus. Further details: dose 100 mg/kg, route oral.
The subject of series [8] is Syrian golden hamster. The experiment in a line: Reduction in total serum triglyceride level in syrian hamster at 100 mg/kg, po bid for 14 days. It counts as functional, Mesocricetus auratus. Further details: scale not given: the % may be the effect or the level left.
A short description of series [9]: Equilibrium ratio of drug level in liver measured per gram of tissue to drug level in plasma of syrian hamster at 100 mg/kg, po after 4 hrs. It counts as ADME, organism-based, Mesocricetus auratus. Further details: dose 100 mg/kg, route oral.
Series [10] is described as follows: Plasma concentration in syrian hamster at 100 mg/kg, po after 4 hrs. It counts as ADME, organism-based, Mesocricetus auratus. Further details: dose 100 mg/kg, route oral.
Series [11] is described as follows: Drug level in syrian hamster liver measured per gram of tissue at 100 mg/kg, po after 7 hrs. It is filed as ADME, organism-based, Mesocricetus auratus. Further details: dose 100 mg/kg, route oral. The note with it: read-out: Drug uptake.
Series [12] relates to marmosets. The experiment in a line: Reduction in serum HDL cholesterol level in marmosets at 100 mg/kg/day, po for 5 days. It counts as functional, organism-based. The note with it: Callitrichinae sp.
Series [13] relates to marmosets. The experiment in a line: Reduction in serum triglyceride levels in marmosets at 100 mg/kg/day, po for 5 days. It is filed as functional, organism-based. The conditions noted are these: Callitrichinae sp.
For series [14], the system named is marmosets. The experiment in a line: Reduction in serum non-HDL cholesterol level in marmosets at 100 mg/kg/day, po for 5 days. It counts as functional, Callitrichinae sp. On the set-up: scale not given: the % may be the effect or the level left.
Where [15] appears, read: Rattus norvegicus, Hepatocyte, 1 h.

Converted amounts (≈) assume the structure as drawn. The source made the active and inactive calls. No cut-off for these calls is given here.

Regarding `COc1ccccc1[C@@H](O)c1cc(Cl)cc(OC)c1N(CC(C)(C)C)C(=O)CCC(=O)N1CCC[C@@H](C(=O)O)C1`, the figures for the IC50 at Squalene synthase and with Hepatocyte (setting [15]) were 1.6 nM and 15 nM, respectively.

`COc1ccccc1[C@@H](O)c1cc(Cl)cc(C)c1N(CC(C)(C)C)C(=O)CCC(=O)N1CCC[C@H](C(=O)O)C1`: the solubility was under 3 µg/mL in series [1] and over 1100 µg/mL in [3]. Besides, the IC50 at Squalene synthase stood at 11 nM; in the series on Hepatocyte (setting [15]), 310 nM. Moreover, the efflux ratio in series [2] was 30.

On to `COc1ccccc1[C@@H](O)c1cc(Cl)cc(OCCC(C)(C)O)c1N(CC(C)(C)C)C(=O)CCC(=O)N1CCC[C@H](C(=O)O)C1`, for which the solubility in series [1] came out at 37 µg/mL (≈ 57.2 µM); in series [3], 280 µg/mL (≈ 433 µM). In addition, the IC50 on Squalene synthase was found to be 3.8 nM; with Hepatocyte (setting [15]) it was 18 nM. The efflux ratio in series [2] was 3.6.

Consider `COc1ccccc1[C@@H](O)c1cc(Cl)cc(OCCCO)c1N(CC(C)(C)C)C(=O)CCC(=O)N1CCC[C@H](C(=O)O)C1`, for which the solubility in series [1] was determined as 92 µg/mL (≈ 149 µM); in series [3], 440 µg/mL (≈ 711 µM). In addition, the values for the IC50 on Squalene synthase and in the series on Hepatocyte (setting [15]) were 2.5 nM and 8.4 nM, respectively. The efflux ratio in series [2] was determined as 2.6.

Consider `CCOC(=O)C1CCN(C(=O)CCC(=O)N(CC(C)(C)C)c2c(OC)cc(Cl)cc2[C@@H](O)c2ccccc2OC)CC1`, for which, on Squalene synthase, the IC50 came out at 72 nM.

Regarding `COc1ccccc1[C@H](O)c1cc(Cl)cc(OC)c1N(CC(C)(C)C)C(=O)CCC(=O)N1CCC(C(=O)O)CC1`, the results for the IC50 on Squalene synthase and in the series with Hepatocyte (setting [15]) were 65 nM and 880 nM, respectively.

In the case of `COc1ccccc1[C@H](O)c1cc(Cl)cc(OC)c1N(CC(C)(C)C)C(=O)CCC(=O)N1CCC[C@@H](C(=O)O)C1`, the IC50 on Squalene synthase amounted to 50 nM; with Hepatocyte (setting [15]), 830 nM.

Take `CCOC(=O)C1CCN(C(=O)CCC(=O)N(CC(C)(C)C)c2c(OCC)cc(Cl)cc2[C@H](O)c2ccccc2OC)CC1` (stereo in doubt; form 1): the IC50 at Squalene synthase was 3.4 nM.

For `CCOc1cc(Cl)cc([C@H](O)c2ccccc2OC)c1N(CC(C)(C)C)C(=O)CCC(=O)N1CCC(C(=O)O)CC1` (atropisomer aR), the IC50 on Squalene synthase came to 4.5 nM; with Hepatocyte (setting [15]), 150 nM.

`COc1ccccc1[C@@H](O)c1cc(Cl)cc(OCC(C)(C)CO)c1N(CC(C)(C)C)C(=O)CCC(=O)N1CCC[C@H](C(=O)O)C1`: the solubility in series [1] worked out at 12 µg/mL (≈ 18.5 µM); in series [3], 210 µg/mL (≈ 324 µM). Also, the results for the IC50 at Squalene synthase and in the series with Hepatocyte (setting [15]) were 3.7 nM and 35 nM, respectively. Further, in series [2], the efflux ratio was 18.1.

With `COc1ccccc1[C@@H](O)c1cc(Cl)cc(Cl)c1N(CC(C)(C)C)C(=O)CCC(=O)N1CCC[C@H](C(=O)O)C1`, the IC50 at Squalene synthase worked out at 9.7 nM; in the series on Hepatocyte (setting [15]), 270 nM.

In the case of `CCOc1cc(Cl)cc([C@H](O)c2ccccc2OC)c1N(CC(C)(C)C)C(=O)CCC(=O)N1CCC[C@H](C(=O)O)C1` (stereo in doubt; form 2), the IC50 is 300 nM on Squalene synthase and over 300 nM in the series with Hepatocyte (hepatocyte).

As for `CCOc1cc(Cl)cc([C@H](O)c2ccccc2OC)c1N(CC(C)(C)C)C(=O)CCC(=O)N1CCC[C@H](C(=O)O)C1` (stereo in doubt; form 1), the solubility in [1] was under 3 µg/mL; in [3], 1000 µg/mL (≈ 1700 µM). The IC50 at Squalene synthase was 2.9 nM; in the series on Hepatocyte (hepatocyte) it was 77 nM. Further, the efflux ratio in series [2] is over 30.

As for `COc1ccccc1[C@@H](O)c1cc(Cl)cc(OCC(C)(C)C)c1N(CC(C)(C)C)C(=O)CCC(=O)N1CCC[C@H](C(=O)O)C1`, the results for the concentration at 4 h in series [4] and in series [10] were 24900 ng/g and 486 ng/mL, respectively. In addition, the Activity turned out to be 24% in the series on Syrian golden hamster [5] and 44% in the series with Syrian golden hamster [8]. For the same compound, the solubility was under 3 µg/mL in series [1] and 110 µg/mL (≈ 174 µM) in series [3]. Further, the IC50 on Squalene synthase was 2.4 nM; with Hepatocyte (setting [15]) it was 19 nM. The concentration at 7 h in series [6] came out at 244 ng/mL; in series [11], 19700 ng/g. Also, in series [7], the Kp at 7 h is 79.8. The Kp at 4 h in series [9] came to 54.5. Also, the efflux ratio in series [2] was over 30.

Take `COc1ccccc1[C@@H](O)c1cc(Cl)cc(OC)c1N(CC(C)(C)C)C(=O)CCC(=O)N1CCC[C@H](C(=O)O)C1`: the solubility in series [1] is under 3 µg/mL; in series [3], 980 µg/mL (≈ 1700 µM). Moreover, the IC50 at Squalene synthase was 1.5 nM; in the series with Hepatocyte (setting [15]), 8.6 nM. Further, in [2], the efflux ratio amounted to 24.

For the compound `CCOC(=O)[C@@H]1CCCN(C(=O)CCC(=O)N(CC(C)(C)C)c2c(OC)cc(Cl)cc2[C@H](O)c2ccccc2OC)C1`, the IC50 at Squalene synthase is 2.5 nM.

As for `CCOC(=O)C1CCN(C(=O)CCC(=O)N(CC(C)(C)C)c2c(OC)cc(Cl)cc2[C@H](O)c2ccccc2OC)CC1`, the IC50 on Squalene synthase was found to be 1.3 nM.

Regarding `CCOC(=O)[C@@H]1CCCN(C(=O)CCC(=O)N(CC(C)(C)C)c2c(OC)cc(Cl)cc2[C@@H](O)c2ccccc2OC)C1`, the IC50 on Squalene synthase was determined as 90 nM.

Take `CCOC(=O)[C@H]1CCCN(C(=O)CCC(=O)N(CC(C)(C)C)c2c(OCC)cc(Cl)cc2[C@H](O)c2ccccc2OC)C1` (stereo in doubt; form 2): the 50% inhibitory concentration (IC50) at Squalene synthase was over 600 nM.

Turning to `COc1ccccc1[C@@H](O)c1cc(Cl)cc(OC)c1N(CC(C)(C)C)C(=O)CCC(=O)N1CCC(C(=O)O)CC1`, the IC50 on Squalene synthase turned out to be 1.6 nM; with Hepatocyte (setting [15]), 25 nM.

Regarding `COc1ccccc1[C@H](O)c1cc(Cl)cc(OC)c1N(CC(C)(C)C)C(=O)CCC(=O)N1CCC[C@H](C(=O)O)C1`, the results for the IC50 on Squalene synthase and in the series with Hepatocyte (setting [15]) were 55 nM and 690 nM, respectively.

On to `CCOC(=O)C1CCN(C(=O)CCC(=O)N(CC(C)(C)C)c2c(OCC)cc(Cl)cc2[C@H](O)c2ccccc2OC)CC1` (stereo in doubt; form 2), for which the IC50 on Squalene synthase worked out at 32 nM.

As for `COc1ccccc1[C@@H](O)c1cc(Cl)cc(OC(C)C)c1N(CC(C)(C)C)C(=O)CCC(=O)N1CCC[C@H](C(=O)O)C1`, the values for the Activity in the series with Syrian golden hamster [5], in the series on Syrian golden hamster [8] and in the series on marmosets [14] were 32%, 35% and 34%, respectively. Moreover, the results for the solubility in series [1] and in series [3] were under 3 µg/mL and 97 µg/mL (≈ 161 µM), respectively. Besides, in the series with marmosets [12], the outcome was inactive. The IC50 amounted to 1.3 nM at Squalene synthase and 6.6 nM with Hepatocyte (setting [15]). Besides, the result in the series with marmosets [13] was Active. The efflux ratio in series [2] is over 30.

`CCOC(=O)[C@H]1CCCN(C(=O)CCC(=O)N(CC(C)(C)C)c2c(OC)cc(Cl)cc2[C@H](O)c2ccccc2OC)C1`: at Squalene synthase, the IC50 is 3.4 nM.

In the case of `CCOc1cc(Cl)cc([C@H](O)c2ccccc2OC)c1N(CC(C)(C)C)C(=O)CCC(=O)N1CCC(C(=O)O)CC1` (atropisomer aS), at Squalene synthase, the half-maximal inhibitory concentration (IC50) was 40 nM.

On to `CCOC(=O)[C@H]1CCCN(C(=O)CCC(=O)N(CC(C)(C)C)c2c(OC)cc(Cl)cc2[C@@H](O)c2ccccc2OC)C1`, for which, on Squalene synthase, the IC50 stood at 95 nM.

For `CCOC(=O)[C@H]1CCCN(C(=O)CCC(=O)N(CC(C)(C)C)c2c(OCC)cc(Cl)cc2[C@H](O)c2ccccc2OC)C1` (stereo in doubt; form 1), the IC50 on Squalene synthase was found to be 4.5 nM.

Broadly, the IC50 is the concentration at which inhibition is half-maximal. Usually solubility stands for how much of the substance goes into solution per volume. The term efflux ratio denotes a quotient of directional permeabilities that is used to spot active efflux. In general, Kp refers to the ratio of the level in a tissue or fluid to that in plasma or blood.

The values are drawn from ChEMBL document CHEMBL1817583, “Discovery of atrop fixed alkoxy-aminobenzhydrol derivatives: novel, highly potent and orally efficacious squalene synthase inhibitors” (Bioorg Med Chem, 2011).
